Measured values published in US11247965B2 (VenatoRx Pharmaceuticals, Inc., priority 2017, dated 2022).

Assays:
[1] = In vitro cytotoxicity, MTT cell viability assay in HepG2 cells; format: cell-based; details: human, Cytotoxicity CC50
Procedure, shortened: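 Read-out: MTT formazan absorbance at 492 nm, expressed as % of vehicle signal; CC50 by 4-parameter non-linear regression. Parental HepG2, 20,000 cells/well, treated 7 days with compound from 30 μM down to 1.0 nM.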

[2] = test system: HBV replication in HepAD38 cells; test: Anti-HBV activity in HepAD38 cells, extracellular HBV DNA by QPCR; format: cell-based, HBV (genotype D, serotype ayw); details: Hepatitis B virus, HePAD38, 168 h, read-out: Anti-HBV EC50, HepAD38 cells, extracellular HBV DNA by QPCR, 7 days of incubation
Procedure, shortened: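 Seven-day compound exposure (30 μM down to 10 nM, half-log steps) after tetracycline withdrawal induced HBV replication in HepAD38 cells. Extracellular viral DNA measured by QPCR (copies/mL via standard curve), normalised to DMSO wells; EC50 from 4-parameter non-linear regression.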

SMILES | CC50 at 7 days [1] [µM] | EC50 [2] [µM]
Cc1cc(NC(=O)c2ccc(F)c(C(F)(F)C(=O)N3C4CC[C@@H]3C[C@@H](C(N)=O)C4)c2)ccc1F [Example 257, (1R,3s,5S)-8-(2,2-difluoro-2-(2-fluoro-5-((4-fluoro-3-methylphenyl)carbamoyl)phenyl)acetyl)-8-azabicyclo[3.2.1]octane-3-carboxamide] | 5 to 30 | < 5
Cc1cc(NC(=O)c2ccc(F)c(C(F)(F)C(=O)N3C4CC[C@@H]3C[C@@H](C(=O)NCCO)C4)c2)ccc1F [Example 258, (1R,3s,5S)-8-(2,2-difluoro-2-(2-fluoro-5-((4-fluoro-3-methylphenyl)carbamoyl)phenyl)acetyl)-N-(2-hydroxyethyl)-8-azabicyclo[3.2.1]octane-3-carboxamide] | > 30 | < 5
Cc1cc(NC(=O)c2ccc(F)c(C(F)(F)C(=O)N3C4CC[C@@H]3C[C@@H](C(=O)O)C4)c2)ccc1F [Example 259, (1R,3s,5S)-8-(2,2-difluoro-2-(2-fluoro-5-((4-fluoro-3-methylphenyl)carbamoyl)phenyl)acetyl)-8-azabicyclo[3.2.1]octane-3-carboxylic acid] | > 30 | < 5
Cc1cc(NC(=O)c2ccc(F)c(C(F)(F)C(=O)N3C4CC[C@@H]3C[C@@H](C(=O)N3CCOCC3)C4)c2)ccc1F [Example 260, 3-(1,1-difluoro-2-((1R,3s,5S)-3-(morpholine-4-carbonyl)-8-azabicyclo[3.2.1]octan-8-yl)-2-oxoethyl)-4-fluoro-N-(4-fluoro-3-methylphenyl)benzamide] | > 30 | < 5
Cc1cc(NC(=O)c2ccc(F)c(C(F)(F)C(=O)N3C4CC[C@@H]3C[C@@H](NS(C)(=O)=O)C4)c2)ccc1F [Example 261, 3-(1,1-difluoro-2-((1R,3s,5S)-3-(methylsulfonamido)-8-azabicyclo[3.2.1]octan-8-yl)-2-oxoethyl)-4-fluoro-N-(4-fluoro-3-methylphenyl)benzamide] | < 5 | < 5
Cc1cc(NC(=O)c2ccc(F)c(C(F)(F)C(=O)N3C4CC[C@@H]3C[C@H](NS(C)(=O)=O)C4)c2)ccc1F [Example 262, 3-(1,1-difluoro-2-((1R,3r,5S)-3-(methylsulfonamido)-8-azabicyclo[3.2.1]octan-8-yl)-2-oxoethyl)-4-fluoro-N-(4-fluoro-3-methylphenyl)benzamide] | 5 to 30 | < 5
CC(=O)N[C@@H]1CC2CC[C@H](C1)N2C(=O)C(F)(F)c1cc(C(=O)Nc2ccc(F)c(C)c2)ccc1F [Example 263, 3-(2-((1R,3r,5S)-3-acetamido-8-azabicyclo[3.2.1]octan-8-yl)-1,1-difluoro-2-oxoethyl)-4-fluoro-N-(4-fluoro-3-methylphenyl)benzamide] | 5 to 30 | < 5
Cc1cc(NC(=O)c2ccc(F)c(C(F)(F)C(=O)N3CCN4C(=O)NCC4C3)c2)ccc1F (centres unmarked) [Example 264, 3-(1,1-difluoro-2-oxo-2-(3-oxohexahydroimidazo[1,5-a]pyrazin-7(1H)-yl)ethyl)-4-fluoro-N-(4-fluoro-3-methylphenyl)benzamide] | > 30 | < 5
Cc1cc(NC(=O)c2ccc(F)c(C(F)(F)C(=O)N3[C@H]4CC[C@@H]3c3cn[nH]c3C4)c2)ccc1F [Example 265, 3-(1,1-difluoro-2-((4R,7S)-1,4,5,6,7,8-hexahydro-4,7-epiminocyclohepta[c]pyrazol-9-yl)-2-oxoethyl)-4-fluoro-N-(4-fluoro-3-methylphenyl)benzamide] | 5 to 30 | < 5
Cc1cc(NC(=O)c2ccc(F)c(C(F)(F)C(=O)N3[C@@H]4COC[C@H]3CN(S(N)(=O)=O)C4)c2)ccc1F [Example 266, 3-(1,1-difluoro-2-oxo-2-((1R,5S)-7-sulfamoyl-3-oxa-7,9-diazabicyclo[3.3.1]nonan-9-yl)ethyl)-4-fluoro-N-(4-fluoro-3-methylphenyl)benzamide] | > 30 | < 5
Cc1cc(NC(=O)c2ccc(F)c(C(F)(F)C(=O)N3CCC(N4CCOCC4)CC3)c2)ccc1F [Example 267, 3-(1,1-difluoro-2-(4-morpholinopiperidin-1-yl)-2-oxoethyl)-4-fluoro-N-(4-fluoro-3-methylphenyl)benzamide] | 5 to 30 | 5 to 30
Cc1cc(NC(=O)c2ccnc(C(F)(F)C(=O)N3CCc4nc(N)sc4C3)c2)ccc1F [Example 268, 2-(2-(2-amino-6,7-dihydrothiazolo[5,4-c]pyridin-5(4H)-yl)-1,1-difluoro-2-oxoethyl)-N-(4-fluoro-3-methylphenyl)isonicotinamide] | > 30 | 5 to 30
Cc1cc(NC(=O)c2ccc(F)c(C(F)(F)C(=O)N3CCC4(CC3)NC(=O)NC4=O)c2)ccc1F [Example 269, 3-(2-(2,4-dioxo-1,3,8-triazaspiro[4.5]decan-8-yl)-1,1-difluoro-2-oxoethyl)-4-fluoro-N-(4-fluoro-3-methylphenyl)benzamide] | > 30 | < 5
Cc1cc(NC(=O)c2ccc(F)c(C(F)(F)C(=O)N3CCc4[nH]nnc4C3)c2)ccc1F [Example 270, 3-(1,1-difluoro-2-oxo-2-(1,4,6,7-tetrahydro-5H-[1,2,3]-triazolo[4,5-c]pyridin-5-yl)ethyl)-4-fluoro-N-(4-fluoro-3-methylphenyl)benzamide] | 5 to 30 | < 5
Cc1cc(NC(=O)c2ccc(F)c(C(F)(F)C(=O)NC34CC5CC(CC3C5)C4)c2)ccc1F [Example 271, 3-(1,1-difluoro-2-(((2R,3as,5S,6as)-hexahydro-2,5-methanopentalen-3a(1H)-yl)amino)-2-oxoethyl)-4-fluoro-N-(4-fluoro-3-methylphenyl)benzamide] | 5 to 30 | 5 to 30
Cc1cc(NC(=O)c2ccc(F)c(C(F)(F)C(=O)NC34CC5CC(CC(O)(C5)C3)C4)c2)ccc1F [Example 272, 3-(1,1-difluoro-2-(((1r,3s,5R,7S)-3-hydroxyadamantan-1-yl)amino)-2-oxoethyl)-4-fluoro-N-(4-fluoro-3-methylphenyl)benzamide] | 5 to 30 | 5 to 30
Cc1cc(NC(=O)c2ccc(F)c(C(F)(F)C(=O)N3C4COCC3CC(=NO)C4)c2)ccc1F [Example 273, 3-(1,1-difluoro-2-(7-(hydroxyimino)-3-oxa-9-azabicyclo[3.3.1]nonan-9-yl)-2-oxoethyl)-4-fluoro-N-(4-fluoro-3-methylphenyl)benzamide] | 5 to 30 | < 5
Cc1cc(NC(=O)c2ccc(F)c(C(F)(F)C(=O)N3[C@@H]4CC[C@H]3CC(O)(CN)C4)c2)ccc1F (stereo partly drawn) [Example 276, 3-(2-((1R,5S)-3-(aminomethyl)-3-hydroxy-8-azabicyclo[3.2.1]octan-8-yl)-1,1-difluoro-2-oxoethyl)-4-fluoro-N-(4-fluoro-3-methylphenyl)benzamide] | 5 to 30 | < 5
CO[C@H]1CC2CC[C@H](C1)N2C(=O)C(F)(F)c1cc(C(=O)Nc2ccc(F)c(C)c2)ccc1F [Example 277, 3-(1,1-difluoro-2-((1R,3s,5S)-3-methoxy-8-azabicyclo[3.2.1]octan-8-yl)-2-oxoethyl)-4-fluoro-N-(4-fluoro-3-methylphenyl)benzamide] | 5 to 30 | < 5
Cc1cc(NC(=O)c2ccc(F)c(C(F)(F)C(=O)N3CCC(F)(F)CC3)c2)ccc1F [Example 278, 3-(2-(4,4-difluoropiperidin-1-yl)-1,1-difluoro-2-oxoethyl)-4-fluoro-N-(4-fluoro-3-methylphenyl)benzamide] | > 30 | 5 to 30
Nc1nc2c(s1)CN(C(=O)C(F)(F)c1cc(C(=O)Nc3ccc(F)c(Cl)c3)ccc1F)CC2 [Example 279, 3-(2-(2-amino-6,7-dihydrothiazolo[5,4-c]pyridin-5(4H)-yl)-1,1-difluoro-2-oxoethyl)-N-(3-chloro-4-fluorophenyl)-4-fluorobenzamide] | 5 to 30 | < 5
Cc1cc(NC(=O)c2ccc(F)c(C(F)(F)C(=O)N3C[C@H]4CC[C@@H](C3)C4=O)c2)ccc1F [Example 280, 3-(1,1-difluoro-2-oxo-2-((1R,5S)-8-oxo-3-azabicyclo[3.2.1]octan-3-yl)ethyl)-4-fluoro-N-(4-fluoro-3-methylphenyl)benzamide] | 5 to 30 | < 5
Cc1cc(NC(=O)c2ccc(F)c(C(F)(F)C(=O)N3CC4CCC(C3)C4O)c2)ccc1F [Example 281, 3-(1,1-difluoro-2-((1R,5S,8s)-8-hydroxy-3-azabicyclo[3.2.1]octan-3-yl)-2-oxoethyl)-4-fluoro-N-(4-fluoro-3-methylphenyl)benzamide] | 5 to 30 | < 5
Cc1cc(NC(=O)c2ccnc(C(F)(F)C(=O)N3[C@@H]4CC[C@H]3C[C@H](C(=O)O)C4)c2)ccc1F [Example 282, (1R,3s,5S)-8-(2,2-difluoro-2-(4-((4-fluoro-3-methylphenyl)carbamoyl)pyridin-2-yl)acetyl)-8-azabicyclo[3.2.1]octane-3-carboxylic acid] | > 30 | 5 to 30
Cc1cc(NC(=O)c2ccc(F)c(C(F)(F)C(=O)N3CC4CNCC4C3)c2)ccc1F (centres unmarked) [Example 283, 3-(1,1-difluoro-2-(hexahydropyrrolo[3,4-c]pyrrol-2(1H)-yl)-2-oxoethyl)-4-fluoro-N-(4-fluoro-3-methylphenyl)benzamide] | 5 to 30 | < 5
